Patent US20260242405A1, “N-DERIVATIZED SIALIC ACIDS AND RELATED SIALOSIDES” (THE REGENTS OF THE UNIVERSITY OF CALIFORNIA, priority 2023, published 2026)
Read-outs that look alike come from different tables or passages of the source.

Legend:
[1] = biological target: N1-BR18 (IAV neuraminidase) (Influenza A virus, UniProt A0A0X9QTS2); assay: Fluorescence-based inhibition assay (substrate Neu5Acα2-3GalβMU, β-galactosidase coupled); type: biochemical, influenza A virus A/Brisbane/02/2018 (H1N1)
[2] = biological target: NB-Aus21 (IBV neuraminidase) (Influenza B virus, UniProt A0A1X9RX69); assay: biochemical; parameters: species or system influenza B virus B/Austria/1359417/2021
[3] = biological target: T1, hNEU2 (human cytosolic sialidase) (Homo sapiens, UniProt Q9Y3R4); assay: Fluorescence-based inhibition assay (substrate Neu5Acα2-3GalβMU, β-galactosidase coupled); type: biochemical; conditions: inhibitor 8.0 μM
T1 construct: made in house

[4] = tested on: N1-Vic19 (IAV neuraminidase); assay: as above; type: biochemical, influenza A virus A/Victoria/2570/2019 (H1N1); conditions: for percentage inhibition against N1-Vic19: inhibitor 8.0 μM, Example 3, Table 4
[5] = biological target: N2-Dar21 (IAV neuraminidase) (Influenza A virus, UniProt A0A193ACB1); assay: as above; type: biochemical, influenza A virus A/Darwin/9/2021 (H3N2); conditions: for inhibition at 8 µM: read-out: percentage inhibition against N2-Dar21
[6] = biological target: N2-Kan17 (IAV neuraminidase) (Influenza A virus, UniProt A0A193ACB1); assay: as above; type: biochemical, influenza A virus A/Kansas/14/2017 (H3N2); conditions: for inhibition at 8 µM: read-out: percentage inhibition against N2-Kan17
[7] = biological target: NB-Phu13 (IBV neuraminidase) (Influenza B virus, UniProt A0A1S5RAG6); assay: as above; type: biochemical, influenza B virus B/Phuket/3073/2013; conditions: for inhibition at 8 µM: read-out: percentage inhibition against NB-Phu13
[8] = biological target: T2, PmST1 WT (sialidase activity of α2-3-sialyltransferase 1 in the presence of CMP) (Pasteurella multocida, UniProt Q15KI8); assay: biochemical; conditions: for inhibition at 8 µM: read-out: percent inhibition against PmST1 WT
T2 construct: made in house

SpNanA (sialidase) = biological target: T3, SpNanA (sialidase) (Streptococcus pneumoniae, UniProt P62575); assay: Fluorescence-based inhibition assay (substrate Neu5Acα2-3GalβMU, β-galactosidase coupled); type: biochemical; conditions: for inhibition at 8 µM: read-out: percent inhibition against SpNanA
T3 construct: made in house

[9] = tested on: human, bacterial, and influenza sialidases; assay: High-throughput substrate specificity assay with sialyl GalβpNPs (A405 nm); type: biochemical, bacteria, influenza A and B viruses; conditions: for cleavage by sialidases, selectivity: low and high enzyme-concentration assay conditions, Example 3
[10] = read-out: Percentage inhibition against N1-BR18 (IAV), inhibitor 8.0 μM, substrate Neu5Acα2-3GalβMU 8.0 μM, Example 2, Table 2
[11] = read-out: percentage inhibition against N1-BR18, inhibitor 8.0 μM, Example 3, Table 4
[12] = inhibitor 8.0 μM, substrate Neu5Acα2-3GalβMU 8.0 μM, Example 2, Table 2, read-out: Percentage inhibition against NB-Aus21 (IBV)
[13] = inhibitor 8.0 μM, Example 3, Table 4, read-out: percentage inhibition against NB-NB-Aus21
[14] = substrate Neu5Acα2-3GalβMU 8.0 μM, Example 2, Table 2, read-out: Percentage inhibition against hNEU2
[15] = Table 5, read-out: percent inhibition against hNEU2
[16] = high-concentration enzyme conditions (10-fold, Vc sialidase 4-fold), 1 hour
[17] = high-concentration enzyme conditions, 14 hours
[18] = inhibitor 8.0 μM, substrate Neu5Acα2-3GalβMU 8.0 μM, Example 2, Table 2
[19] = inhibitor 8.0 μM, Example 3, Table 4

T1 sequence (Q9Y3R4 whole entry): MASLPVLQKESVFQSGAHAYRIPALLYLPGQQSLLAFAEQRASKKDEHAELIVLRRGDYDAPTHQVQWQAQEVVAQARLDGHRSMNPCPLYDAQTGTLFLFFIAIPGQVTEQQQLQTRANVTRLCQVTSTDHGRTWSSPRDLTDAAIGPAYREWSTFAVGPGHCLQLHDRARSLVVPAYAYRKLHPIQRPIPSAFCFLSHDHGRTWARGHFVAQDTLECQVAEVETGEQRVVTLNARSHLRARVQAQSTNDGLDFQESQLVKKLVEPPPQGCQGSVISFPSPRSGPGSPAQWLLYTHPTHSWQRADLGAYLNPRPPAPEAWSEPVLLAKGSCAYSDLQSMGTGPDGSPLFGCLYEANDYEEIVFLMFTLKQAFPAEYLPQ

Compound | inhibition at 8 µM [1, 10] | inhibition at 8 µM [1, 11] | inhibition at 8 µM [2, 12] | inhibition at 8 µM [2, 13] | inhibition at 8 µM [3, 14] | inhibition at 8 µM [3, 15] | percentage inhibition against N1-Vic19 [4] | inhibition at 8 µM [5] | inhibition at 8 µM [6] | inhibition at 8 µM [7] | inhibition at 8 µM [8] | inhibition at 8 µM (SpNanA (sialidase)) | cleavage by sialidases [9, 16] | cleavage by sialidases [9, 17] | cleavage by sialidases, selectivity [9] | also measured
CC(=O)N[C@@H]1C(N=[N+]=[N-])C[C@](OC2C(O)[C@H](Oc3ccc([N+](=O)[O-])cc3)OC(CO)[C@@H]2O)(C(=O)O)OC1[C@H](O)[C@H](O)CO (stereo partly drawn) [4N3Neu5Acα2-3GalβpNP] | 0% | 2.6% | 22 ± 3.7% | 3.8% | 0% | 0% | 1.2% | 0.8% | 0.1% | 0.9% | 24 ± 6.9% | 0.6 ± 2.7% | completely cleaved | selectively by influenza virus NAs | selectively cleaved by all influenza NAs tested but not human NEU2 or bacterial sialidases | cleavage by sialidases ([9]; low-concentration enzyme conditions, 30 minutes, 37° C.): cleaved off selectively by influenza virus NAs only
CC(=O)N[C@@H]1C(N=[N+]=[N-])C[C@](OCC2O[C@@H](Oc3ccc([N+](=O)[O-])cc3)C(O)C(O)[C@H]2O)(C(=O)O)OC1[C@H](O)[C@H](O)CO (stereo partly drawn) [4N3Neu5Acα2-6GalβpNP] | 0% | 0.2% | 23 ± 3.6% | 1.4% | 0% | 0% | 3.9% | 1% | 0% | 2.6% | 41.3 ± 20.3% | 11.6 ± 6.7% | low percentage | selectively by influenza virus NAs | observed only under the high-enzyme-concentration assay conditions | –
CC(=O)NC1C[C@](OC2C(O)[C@H](Oc3ccc([N+](=O)[O-])cc3)OC(CO)[C@@H]2O)(C(=O)O)OC([C@H](O)[C@H](O)CO)[C@@H]1NC(C)=O (stereo partly drawn) [4NAcNeu5Acα2-3GalβpNP] | 3.2 ± 3.2% | 3% | 17.3 ± 1.2% | 0.1% | 0% | 0% | 1.5% | 3.2% | 2.1% | 0.9% | 27.9 ± 4.2% | 10 ± 2.3% | – | weakly cleaved off by only influenza virus N1-Vic19 | resistant to cleavage by all of the sialidases tested | –
CC(=O)N[C@@H]1C(N)C[C@](OC2C(O)[C@H](Oc3ccc([N+](=O)[O-])cc3)OC(CO)[C@@H]2O)(C(=O)O)OC1[C@H](O)[C@H](O)CO (stereo partly drawn) [4NH2Neu5Acα2-3GalβpNP] | 61% | 47.2 ± 3.3% | 45% | 28.5% | 0% | 0% | 48.3±7.9% | 13.4% | 0.5% | 18.3% | 23.4 ± 1.2% | 9 ± 8.3% | very poor substrates for the influenza NAs tested | weakly cleaved off by both SpNanA and some influenza virus NAs | – | –
CC(=O)N[C@H]1[C@H]([C@H](O)[C@H](O)CO)OC(C(=O)O)=C[C@@H]1N=[N+]=[N-] [Compound 4N3Neu5Ac2en, 4N3Neu5Ac2en] | – | – | – | – | – | – | 39.6% | – | – | – | – | – | – | – | – | IC50 ([1]; Example 3, Table 6, read-out: IC50 against N1-BR18): 4.4 ± 0.2 µM; Percentage inhibition against N1-BR18 (IAV) [1, 18]: 40.7 ± 2.7%; percentage inhibition against N1-BR18 [1, 19]: 39.2%; percentage inhibition against NB-NB-Aus21 ([2]; 8 µM): 78.8±3.7%; IC50 ([2]; Example 3, Table 6, read-out: IC50 against NB-NB-Aus21): 1.5 ± 0.1 µM; Percentage inhibition against NB-Aus21 (IBV) [2, 18]: 82.8 ± 1.7%; Percentage inhibition against hNEU2 ([3]; substrate Neu5Acα2-3GalβMU 8.0 μM, Example 2, Table 2): 3.3 ± 0.6%; percent inhibition against hNEU2 ([3]; Table 5): 3.3 ± 0.6%; IC50 ([4]; Example 3, Table 6, read-out: IC50 against N1-Vic19): 6.2 ± 0.4 µM; percentage inhibition against N2-Dar21 [5, 19]: 22.1%; percentage inhibition against N2-Kan17 [6, 19]: 18.3%; IC50 ([7]; Example 3, Table 6, read-out: IC50 against NB-Phu13): 1.4 ± 0.1 µM; percentage inhibition against NB-Phu13 [7, 19]: 75.6±1.6%; percent inhibition against PmST1 WT ([8]; inhibitor 8.0 μM, in the presence of CMP, Table 5): 15.4 ± 5.0%; percent inhibition against SpNanA (SpNanA (sialidase); inhibitor 8.0 μM, Table 5): 3.0 ± 1.3%
